# Tested on: 876862-298-R-J1-PDC complex spheroids, viability % test/control
# Assay: Anticancer human tumor 876862-298-R-J1-PDC patient-derived endometrial carcinoma cell line growth inhibition [CLK]
# Conditions: for IC50: curve of first compound; for viability, T/C: stronger effect = lower value
# Procedure, shortened: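 Multi-cell-type spheroids combined patient-derived tumor cells with HUVEC endothelial cells and human mesenchymal stem cells. Paired agents were dosed in half-log steps down from about clinical Cmax, or from 10 microM where Cmax was unknown.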
# 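Note: spheroids exposed to drugs for 7 days before readout.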
# 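Throughout, for viability, T/C: 100% = DMSO vehicle control wells.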
compound,measurement,setting,value
CC(C)CC(NC(=O)C(Cc1ccccc1)NC(=O)c1cnccn1)B(O)O (centres undefined) + CNC(=O)c1ccc(Nc2nc(OC3CCCC3)c3c(-c4ccc5nc(C)oc5c4)c[nH]c3n2)c(OC)c1,IC50,second compound 0.0316 µM,1.53 nM
same,IC50,second compound 0.1 µM,< 0.949 nM
same,IC50,second compound 0.316 µM,< 0.949 nM
same,IC50,second compound 1 µM,< 0.949 nM
same,IC50,second compound 3.16 µM,< 0.949 nM
same,IC50,second compound 10 µM,< 0.949 nM
same,"viability, T/C","second compound 0.0316 µM, first compound 0.000949 µM",78.1%
same,"viability, T/C","second compound 0.0316 µM, first compound 0.003 µM",10.6%
same,"viability, T/C","second compound 0.0316 µM, first compound 0.00949 µM",0.67%
same,"viability, T/C","second compound 0.0316 µM, first compound 0.03 µM",0.44%
same,"viability, T/C","second compound 0.0316 µM, first compound 0.0949 µM",1.97%
same,"viability, T/C","second compound 0.0316 µM, first compound 0.3 µM",1.37%
same,"viability, T/C","second compound 0.1 µM, first compound 0.000949 µM",47.3%
same,"viability, T/C","second compound 0.1 µM, first compound 0.003 µM",7.8%
same,"viability, T/C","second compound 0.1 µM, first compound 0.00949 µM",0.68%
same,"viability, T/C","second compound 0.1 µM, first compound 0.03 µM",0.53%
same,"viability, T/C","second compound 0.1 µM, first compound 0.0949 µM",1.95%
same,"viability, T/C","second compound 0.1 µM, first compound 0.3 µM",0.42%
same,"viability, T/C","second compound 0.316 µM, first compound 0.000949 µM",43.2%
same,"viability, T/C","second compound 0.316 µM, first compound 0.003 µM",5.92%
same,"viability, T/C","second compound 0.316 µM, first compound 0.00949 µM",1.95%
same,"viability, T/C","second compound 0.316 µM, first compound 0.03 µM",0.56%
same,"viability, T/C","second compound 0.316 µM, first compound 0.0949 µM",1.66%
same,"viability, T/C","second compound 0.316 µM, first compound 0.3 µM",0.96%
same,"viability, T/C","second compound 1 µM, first compound 0.000949 µM",38.4%
same,"viability, T/C","second compound 1 µM, first compound 0.003 µM",4.5%
same,"viability, T/C","second compound 1 µM, first compound 0.00949 µM",0.69%
same,"viability, T/C","second compound 1 µM, first compound 0.03 µM",0.62%
same,"viability, T/C","second compound 1 µM, first compound 0.0949 µM",1.84%
same,"viability, T/C","second compound 1 µM, first compound 0.3 µM",0.22%
same,"viability, T/C","second compound 3.16 µM, first compound 0.000949 µM",27.6%
same,"viability, T/C","second compound 3.16 µM, first compound 0.003 µM",3.22%
same,"viability, T/C","second compound 3.16 µM, first compound 0.00949 µM",0.41%
same,"viability, T/C","second compound 3.16 µM, first compound 0.03 µM",0.44%
same,"viability, T/C","second compound 3.16 µM, first compound 0.0949 µM",1.98%
same,"viability, T/C","second compound 3.16 µM, first compound 0.3 µM",1.11%
same,"viability, T/C","second compound 10 µM, first compound 0.000949 µM",23.3%
same,"viability, T/C","second compound 10 µM, first compound 0.003 µM",2.73%
same,"viability, T/C","second compound 10 µM, first compound 0.00949 µM",0.85%
same,"viability, T/C","second compound 10 µM, first compound 0.03 µM",0.4%
same,"viability, T/C","second compound 10 µM, first compound 0.0949 µM",0.82%
same,"viability, T/C","second compound 10 µM, first compound 0.3 µM",1.17%
O=C(c1cc(Cc2n[nH]c(=O)c3ccccc23)ccc1F)N1CCN(C(=O)C2CC2)CC1 + CNC(=O)c1ccc(Nc2nc(OC3CCCC3)c3c(-c4ccc5nc(C)oc5c4)c[nH]c3n2)c(OC)c1,IC50,second compound 0.0316 µM,> 10000 nM
same,IC50,second compound 0.1 µM,2090 nM
same,IC50,second compound 0.316 µM,< 31.6 nM
same,IC50,second compound 1 µM,< 31.6 nM
same,IC50,second compound 3.16 µM,< 31.6 nM
same,IC50,second compound 10 µM,< 31.6 nM
same,"viability, T/C","second compound 0.0316 µM, first compound 0.0316 µM",70.5%
same,"viability, T/C","second compound 0.0316 µM, first compound 0.1 µM",97%
same,"viability, T/C","second compound 0.0316 µM, first compound 0.316 µM",84.5%
same,"viability, T/C","second compound 0.0316 µM, first compound 1 µM",94.7%
same,"viability, T/C","second compound 0.0316 µM, first compound 3.16 µM",96.8%
same,"viability, T/C","second compound 0.0316 µM, first compound 10 µM",72.6%
same,"viability, T/C","second compound 0.1 µM, first compound 0.0316 µM",47.4%
same,"viability, T/C","second compound 0.1 µM, first compound 0.1 µM",55%
same,"viability, T/C","second compound 0.1 µM, first compound 0.316 µM",50.6%
same,"viability, T/C","second compound 0.1 µM, first compound 1 µM",50.6%
same,"viability, T/C","second compound 0.1 µM, first compound 3.16 µM",51.5%
same,"viability, T/C","second compound 0.1 µM, first compound 10 µM",47.3%
same,"viability, T/C","second compound 0.316 µM, first compound 0.0316 µM",49.1%
same,"viability, T/C","second compound 0.316 µM, first compound 0.1 µM",44.6%
same,"viability, T/C","second compound 0.316 µM, first compound 0.316 µM",40.6%
same,"viability, T/C","second compound 0.316 µM, first compound 1 µM",40.6%
same,"viability, T/C","second compound 0.316 µM, first compound 3.16 µM",39.4%
same,"viability, T/C","second compound 0.316 µM, first compound 10 µM",35.9%
same,"viability, T/C","second compound 1 µM, first compound 0.0316 µM",39.1%
same,"viability, T/C","second compound 1 µM, first compound 0.1 µM",33.7%
same,"viability, T/C","second compound 1 µM, first compound 0.316 µM",29.6%
same,"viability, T/C","second compound 1 µM, first compound 1 µM",34.1%
same,"viability, T/C","second compound 1 µM, first compound 3.16 µM",31.3%
same,"viability, T/C","second compound 1 µM, first compound 10 µM",26.1%
same,"viability, T/C","second compound 3.16 µM, first compound 0.0316 µM",25.5%
same,"viability, T/C","second compound 3.16 µM, first compound 0.1 µM",23.7%
same,"viability, T/C","second compound 3.16 µM, first compound 0.316 µM",20.4%
same,"viability, T/C","second compound 3.16 µM, first compound 1 µM",25.3%
same,"viability, T/C","second compound 3.16 µM, first compound 3.16 µM",23.3%
same,"viability, T/C","second compound 3.16 µM, first compound 10 µM",14.3%
same,"viability, T/C","second compound 10 µM, first compound 0.0316 µM",22%
same,"viability, T/C","second compound 10 µM, first compound 0.1 µM",21.5%
same,"viability, T/C","second compound 10 µM, first compound 0.316 µM",20.8%
same,"viability, T/C","second compound 10 µM, first compound 1 µM",19.4%
same,"viability, T/C","second compound 10 µM, first compound 3.16 µM",23.5%
same,"viability, T/C","second compound 10 µM, first compound 10 µM",14.6%
